Reference: publication PMC10746543, “Design principles for cyclin K molecular glue degraders” (Nature Chemical Biology, 2023)
Where “and” joins values, the source holds several entries; their conditions need not be identical. Equal values may be shown once. Read-outs that look alike come from different tables or passages of the source.

Experiments:
[1] = target: T1, CDK12–cyclin K and DDB1 (Homo sapiens, UniProt Q16531+Q9NYV4, K965R); assay: TR-FRET ternary complex formation assay (compound titration); assay type: binding
T1 construct: His6–CDK12 (a.a. 713–1,052); full-length or beta-propeller B domain deletion (ΔBPB: a.a. 396–705 deleted) constructs of His6–DDB1ΔBPB, StrepII–Avi–DDB1, or His6–Spy–DDB1; made in house; host or cells: Trichoplusia ni High Five insect cells (baculovirus)
How it was run: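 Delayed (70 μs) time-resolved read; FRET computed as 520 nm over 490 nm emission.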

[2] = system: cyclin K–eGFP degradation reporter; assay: Cyclin K reporter stability analysis (dual-color cyclin K–eGFP reporter); assay type: cell-based, human; details: source data sheet correlations; read-out: DC50
How it was run: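 Cells (HEK293T–Cas9, reporter-expressing) at 1 × 10^6 ml^−1; 5 h compound or DMSO; flow cytometry; gMFI eGFP ÷ mCherry on round mCherry-positive events; normalized to 3 DMSO controls.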

[3] = system: HEK293T cells; assay: Drug sensitivity assay (CellTiter-Glo viability) with or without MLN4924 pretreatment; assay type: cell-based, human; details: Supplementary Table 2
How it was run: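 Viability of HEK293T–Cas9 cells was compared after 3-day drug treatment with or without 100 nM MLN4924 pretreatment (2 h, versus DMSO). Values are CellTiter-Glo signals relative to DMSO controls.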

[4] = target: CDK12–cyclin K (Homo sapiens, UniProt Q9NYV4); assay: Lanthascreen kinase binding assay, CDK12; details: for Lanthascreen raw signal, sheet CDK12: series r37, duplicates
Description: (§1) Lanthascreen experiments were performed using commercially available reagents (Thermo Fisher) and according to the manufacturer’s instructions.

[5] = target: T2, CDK9–cyclin T (Homo sapiens, UniProt P50750); assay: Lanthascreen kinase binding assay, CDK9; details: for Lanthascreen TR-FRET signal (raw ratio), sheet CDK9: third titration set (r25), duplicates
T2 construct: purchased Thermo Fisher
Description: as §1

[6] = target: T3, CDK2–cyclin A (Homo sapiens, UniProt P24941); assay: Lanthascreen kinase binding assay, CDK2; details: for Lanthascreen signal, sheet CDK2: raw replicates, experiment r36-r46
T3 construct: purchased Thermo Fisher
Description: as §1

Sequence of CDK12–cyclin K (Q9NYV4 713-1052): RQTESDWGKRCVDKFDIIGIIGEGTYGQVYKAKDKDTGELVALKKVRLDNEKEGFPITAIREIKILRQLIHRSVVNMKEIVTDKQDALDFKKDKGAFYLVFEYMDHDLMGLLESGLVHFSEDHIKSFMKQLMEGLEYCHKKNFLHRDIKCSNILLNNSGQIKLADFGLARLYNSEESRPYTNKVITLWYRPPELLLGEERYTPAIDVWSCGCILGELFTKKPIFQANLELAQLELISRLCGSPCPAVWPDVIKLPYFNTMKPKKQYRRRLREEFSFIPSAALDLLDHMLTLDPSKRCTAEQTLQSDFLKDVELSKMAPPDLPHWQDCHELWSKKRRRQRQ
Sequence of CDK12–cyclin K (O75909 1-267 partner limits assumed): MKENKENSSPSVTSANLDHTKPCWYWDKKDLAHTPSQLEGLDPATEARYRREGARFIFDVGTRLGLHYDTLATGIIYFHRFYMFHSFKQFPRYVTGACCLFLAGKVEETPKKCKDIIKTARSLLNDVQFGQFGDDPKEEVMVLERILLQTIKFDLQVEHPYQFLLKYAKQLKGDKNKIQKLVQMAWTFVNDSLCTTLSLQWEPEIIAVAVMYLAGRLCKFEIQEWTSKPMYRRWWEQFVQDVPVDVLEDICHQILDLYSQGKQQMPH
T2 sequence (P50750 whole entry): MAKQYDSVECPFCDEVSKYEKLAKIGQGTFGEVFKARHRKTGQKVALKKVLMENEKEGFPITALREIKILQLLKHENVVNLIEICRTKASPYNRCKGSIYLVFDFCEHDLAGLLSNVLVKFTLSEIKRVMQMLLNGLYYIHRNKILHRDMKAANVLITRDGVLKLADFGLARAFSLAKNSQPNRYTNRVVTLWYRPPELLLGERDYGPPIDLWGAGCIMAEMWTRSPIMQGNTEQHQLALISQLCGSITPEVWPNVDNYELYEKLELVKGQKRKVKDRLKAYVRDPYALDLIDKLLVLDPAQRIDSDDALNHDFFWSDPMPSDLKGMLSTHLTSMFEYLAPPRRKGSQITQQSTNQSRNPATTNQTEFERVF
T2 sequence (O60563 whole entry partner): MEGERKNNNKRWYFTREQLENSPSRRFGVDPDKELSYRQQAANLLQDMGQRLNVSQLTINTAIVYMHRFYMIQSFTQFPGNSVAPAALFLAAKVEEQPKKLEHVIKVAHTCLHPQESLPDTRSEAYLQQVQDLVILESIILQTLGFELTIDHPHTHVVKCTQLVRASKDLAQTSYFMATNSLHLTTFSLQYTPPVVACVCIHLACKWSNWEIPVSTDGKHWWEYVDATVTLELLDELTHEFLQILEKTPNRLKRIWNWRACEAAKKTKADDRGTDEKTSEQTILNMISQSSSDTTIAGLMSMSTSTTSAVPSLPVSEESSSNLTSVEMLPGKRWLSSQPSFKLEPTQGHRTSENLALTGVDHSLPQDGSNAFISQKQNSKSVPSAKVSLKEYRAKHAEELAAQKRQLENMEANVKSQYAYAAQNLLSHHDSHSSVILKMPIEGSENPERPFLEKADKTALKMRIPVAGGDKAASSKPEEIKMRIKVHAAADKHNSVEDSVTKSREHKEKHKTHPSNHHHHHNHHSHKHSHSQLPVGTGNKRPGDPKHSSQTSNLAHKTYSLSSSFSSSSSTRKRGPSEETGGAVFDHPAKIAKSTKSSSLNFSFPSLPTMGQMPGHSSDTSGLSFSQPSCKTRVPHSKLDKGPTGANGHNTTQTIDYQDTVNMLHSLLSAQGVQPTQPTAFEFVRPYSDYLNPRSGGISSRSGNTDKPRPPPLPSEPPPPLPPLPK
T1 sequence (Q9NYV4 713-1052 K965R): as the sequence (Q9NYV4 713-1052) above, with K253R counted along it
T1 sequence (O75909 1-267 partner): as the sequence (O75909 1-267 partner limits assumed) above
T1 sequence (Q16531 whole entry): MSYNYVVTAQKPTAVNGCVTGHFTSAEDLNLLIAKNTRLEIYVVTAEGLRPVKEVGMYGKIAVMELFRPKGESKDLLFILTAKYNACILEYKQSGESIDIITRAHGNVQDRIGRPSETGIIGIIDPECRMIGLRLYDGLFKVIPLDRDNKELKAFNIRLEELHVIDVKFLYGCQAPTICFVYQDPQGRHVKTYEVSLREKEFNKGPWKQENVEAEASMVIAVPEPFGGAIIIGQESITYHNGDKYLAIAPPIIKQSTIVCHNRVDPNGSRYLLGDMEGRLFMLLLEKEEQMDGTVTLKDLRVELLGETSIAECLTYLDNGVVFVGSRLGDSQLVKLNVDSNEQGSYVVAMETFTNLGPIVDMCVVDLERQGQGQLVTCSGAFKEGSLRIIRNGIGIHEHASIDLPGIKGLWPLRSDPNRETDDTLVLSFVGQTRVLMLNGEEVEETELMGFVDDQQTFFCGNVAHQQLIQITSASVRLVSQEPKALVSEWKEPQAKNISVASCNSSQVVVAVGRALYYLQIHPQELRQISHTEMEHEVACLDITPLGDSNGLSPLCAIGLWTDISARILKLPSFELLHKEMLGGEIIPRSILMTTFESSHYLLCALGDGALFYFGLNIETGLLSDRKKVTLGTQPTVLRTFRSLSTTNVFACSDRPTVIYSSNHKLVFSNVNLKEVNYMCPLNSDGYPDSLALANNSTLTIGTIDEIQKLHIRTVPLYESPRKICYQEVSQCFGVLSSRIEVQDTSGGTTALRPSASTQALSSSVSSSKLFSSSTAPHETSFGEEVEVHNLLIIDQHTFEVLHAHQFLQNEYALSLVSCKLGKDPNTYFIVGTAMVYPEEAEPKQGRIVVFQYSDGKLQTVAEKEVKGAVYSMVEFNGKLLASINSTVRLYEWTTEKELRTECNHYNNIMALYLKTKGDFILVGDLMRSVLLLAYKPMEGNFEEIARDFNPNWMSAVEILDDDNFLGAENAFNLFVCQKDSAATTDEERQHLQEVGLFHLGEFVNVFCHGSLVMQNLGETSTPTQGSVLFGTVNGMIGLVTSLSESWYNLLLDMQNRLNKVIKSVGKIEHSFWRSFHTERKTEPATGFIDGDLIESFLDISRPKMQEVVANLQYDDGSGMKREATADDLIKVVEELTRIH

TR-FRET signal at compound concentration 0.468 nM ([1]; compound concentration 0.468 nM, raw replicate titration data): 0.2612 and 0.2579 and 0.218 and 0.2096
TR-FRET signal at compound concentration 2.16 nM ([1]; compound concentration 2.16 nM, raw replicate titration data): 0.3357 and 0.3419 and 0.2765 and 0.3174
TR-FRET signal at compound concentration 3.6 nM ([1]; compound concentration 3.6 nM, raw replicate titration data): 0.4892 and 0.5148 and 0.5183 and 0.5347
TR-FRET signal at compound concentration 7.92001 nM ([1]; compound concentration 7.92001 nM, raw replicate titration data): 0.8316 and 0.8843 and 0.9885 and 1.068
TR-FRET signal at compound concentration 15.84 nM ([1]; compound concentration 15.84 nM, raw replicate titration data): 1.474 and 1.574 and 1.714 and 1.959
TR-FRET signal at compound concentration 30.96 nM ([1]; compound concentration 30.96 nM, raw replicate titration data): 2.47 and 2.714 and 3.094 and 3.238
TR-FRET signal at compound concentration 62.6401 nM ([1]; compound concentration 62.6401 nM, raw replicate titration data): 3.3967 and 3.4513 and 3.77 and 3.733
TR-FRET signal at compound concentration 125.28 nM ([1]; compound concentration 125.28 nM, raw replicate titration data): 3.673 and 3.6963 and 3.89 and 3.859
TR-FRET signal at compound concentration 244.8 nM ([1]; compound concentration 244.8 nM, raw replicate titration data): 3.796 and 3.869 and 3.911 and 3.923
TR-FRET signal at compound concentration 993.601 nM ([1]; compound concentration 993.601 nM, raw replicate titration data): 3.806 and 3.925 and 3.935 and 3.945
TR-FRET signal at compound concentration 2001.6 nM ([1]; compound concentration 2001.6 nM, raw replicate titration data): 3.846 and 3.958 and 4 and 4.014
EC50 ([1]; in vitro complex formation, 50 nM CDK12–cyclin K, 100 nM DDB1, text and figures, read-out: TR-FRET EC50): 19 ± 1 nM
EC50 ([1]; sheet MOESM7, read-out: log TR-FRET EC50 (converted)): 19.3 nM
EC50 ([1]; source data sheet correlations, read-out: TR-FRET EC50): 19.3 nM
DC50 [2]: 109 nM
IC50 ([4]; Supplementary Table 2, read-out: Lanthascreen IC50 [nM] CDK12): 1320 nM
Lanthascreen raw signal, sheet CDK12 ([4]; compound 0.038147 nM): 0.01422 and 0.01468
Lanthascreen raw signal, sheet CDK12 ([4]; compound 0.152588 nM): 0.01335 and 0.01357
Lanthascreen raw signal, sheet CDK12 ([4]; compound 0.610352 nM): 0.01416 and 0.01634
Lanthascreen raw signal, sheet CDK12 ([4]; compound 9.76563 nM): 0.01407 and 0.01436
Lanthascreen raw signal, sheet CDK12 ([4]; compound 39.0625 nM): 0.01347 and 0.01362
Lanthascreen raw signal, sheet CDK12 ([4]; compound 156.25 nM): 0.01258 and 0.01228
Lanthascreen raw signal, sheet CDK12 ([4]; compound 625 nM): 0.01036 and 0.01104
Lanthascreen raw signal, sheet CDK12 ([4]; compound 2500 nM): 0.007943 and 0.008192
Lanthascreen raw signal, sheet CDK12 ([4]; compound 10000 nM): 0.006259 and 0.005981
IC50 ([5]; Lanthascreen, average, Extended Data Fig. 8, read-out: CDK9 IC50): > 10000 nM
IC50 ([5]; Supplementary Table 2, read-out: Lanthascreen IC50 [nM] CDK9): > 10000 nM
Lanthascreen TR-FRET signal (raw ratio), sheet CDK9 ([5]; compound 0.038147 nM): 0.01967 and 0.01921
Lanthascreen TR-FRET signal (raw ratio), sheet CDK9 ([5]; compound 0.152588 nM): 0.02095 and 0.01844
Lanthascreen TR-FRET signal (raw ratio), sheet CDK9 ([5]; compound 0.610352 nM): 0.02014 and 0.01923
Lanthascreen TR-FRET signal (raw ratio), sheet CDK9 ([5]; compound 9.76563 nM): 0.02017 and 0.01981
Lanthascreen TR-FRET signal (raw ratio), sheet CDK9 ([5]; compound 39.0625 nM): 0.02067 and 0.01823
Lanthascreen TR-FRET signal (raw ratio), sheet CDK9 ([5]; compound 156.25 nM): 0.02063 and 0.01896
Lanthascreen TR-FRET signal (raw ratio), sheet CDK9 ([5]; compound 625 nM): 0.01918 and 0.01876
Lanthascreen TR-FRET signal (raw ratio), sheet CDK9 ([5]; compound 2500 nM): 0.01797 and 0.01674
Lanthascreen TR-FRET signal (raw ratio), sheet CDK9 ([5]; compound 10000 nM): 0.01641 and 0.01561
Lanthascreen signal, sheet CDK2 ([6]; Compound 0.038147 nM): 0.01361 and 0.01332
Lanthascreen signal, sheet CDK2 ([6]; Compound 0.152588 nM): 0.01367 and 0.01361
Lanthascreen signal, sheet CDK2 ([6]; Compound 0.610352 nM): 0.01456 and 0.01463
Lanthascreen signal, sheet CDK2 ([6]; Compound 9.76563 nM): 0.01461 and 0.01423
Lanthascreen signal, sheet CDK2 ([6]; Compound 39.0625 nM): 0.01375 and 0.01404
Lanthascreen signal, sheet CDK2 ([6]; Compound 156.25 nM): 0.01392 and 0.01367
Lanthascreen signal, sheet CDK2 ([6]; Compound 625 nM): 0.01433 and 0.01409
Lanthascreen signal, sheet CDK2 ([6]; Compound 2500 nM): 0.01378 and 0.01394
Lanthascreen signal, sheet CDK2 ([6]; Compound 10000 nM): 0.01296 and 0.01217
IC50 ([6]; Lanthascreen, average, Extended Data Fig. 8, read-out: CDK2 IC50): > 10000 nM
IC50 ([6]; Supplementary Table 2, read-out: Lanthascreen IC50 [nM] CDK2): > 10000 nM
Compound: CC[C@H](CO)Nc1nc(NCc2nc3cc(Cl)c(Cl)cc3[nH]2)c2ncn(-c3cnn(C)c3)c2n1 [DS22]
EC50 ([3]; Homo sapiens, HEK-293T, HEK293T viability, 72 h, compound alone, read-out: Cellular assays EC50): 935 nM
Toxicity rescue ([3]; MLN4924-mediated cytotoxicity rescue, 10 µM used where n.d.): 66%
